Measurements: patent publication US4526898A, “Antihypertensive 4-(2-imidazolin-2-yl-amino)-2-methyl-indazole” (priority 1983, dated 1985)
Read-outs that look alike come from different tables or passages of the source.

Assays:
Mouse [1] = experiment: Doubling of hexobarbitone sodium sleeping time (CNS activity); type: in vivo; details: po, read-out: Effective dose: Double hexobarbitone sodium sleeping time
Procedure: (§1) All tests were carried out under identical conditions according to standard testing methods. The animal species used, the route of administering the material to be tested, the type of test and the results obtained are shown in Table I hereunder.

Mouse [2] = experiment: Doubling of ethanol sleeping time (CNS activity); type: in vivo; details: po, read-out: Effective dose: Double ethanol sleeping time
Procedure: as §1

Rat [3] = experiment: Doubling of chloralhydrate sleeping time (CNS activity); type: in vivo; details: po, read-out: Effective dose: Double chloralhydrate sleeping time
Procedure: as §1

Mouse [4] = experiment: Reduction in exploratory behaviour; type: in vivo; details: po, read-out: Effective dose: 50% reduction in exploratory behaviour
Procedure: as §1

Rat [5] = experiment: Reduction in tetrabenazine-induced ptosis; type: in vivo; details: po, read-out: Effective dose: 50% reduction in tetrabenazine-induced ptosis
Procedure: as §1

Mouse [6] = experiment: Reduction of 5HTP-induced head twitches; type: in vivo; details: sc, read-out: Effective dose: 50% reduction of 5HTP-induced head twitches
Procedure: as §1

Mouse [7] = experiment: Inhibition of acetic acid-induced writhing; type: in vivo; details: po, read-out: Effective dose: 50% inhibition of acetic acid-induced writhing
Procedure: as §1

Mouse [8] = experiment: Inhibition of heat-induced tail flick; type: in vivo; details: po, read-out: Effective dose: 50% inhibition of heat-induced tail flick
Procedure: as §1

conscious cats = experiment: Behavioural observation in conscious cats; type: in vivo, cat
[9] = test system: adrenaline vasopressor effect; experiment: Adrenaline antagonism (adrenaline reversal) in anaesthetised cats; type: in vivo, cat; details: adrenaline i.v., 5 to 10 mg/kg b.w. intraduodenally
From the text: Experimental hypertension was induced in anaesthetised cats by administering (i.v.) adrenaline.

Toxicity LD50 in mouse = details: in vivo
Procedure: (§2) Toxicity values were determined applying identical standard methods. The data obtained are listed herebelow in Table II showing LD50 values as mg/kg body weight.

Toxicity LD50 in rat = details: in vivo
Procedure: as §2

[10] = Antihypertensive activity in nephrogenic GOLDBLATT hypertensive rats; type: in vivo, rat; details: in vivo, po; GOLDBLATT hypertensive rats, p.o.; LD50 rat p.o.; read-out: therapeutic index LD50 /ED50
Procedure: (§3) Antihypertensive activities for Sgd 101/75 of the invention and Sgd 230/75 of U.S. Pat. No. 4,036,976 were determined with nephrogenic GOLDBLATT hypertensive rats.

[11] = test system: nephrogenic GOLDBLATT hypertensive rats; experiment: as above; type: in vivo, rat; details: for ED50: Rattus norvegicus, po, nephrogenic GOLDBLATT hypertensive rats
Procedure: as §3

α2 -adrenoceptors = experiment: Adrenoceptor activity, α2; details: summary statement
α1 -adrenoceptors = experiment: Adrenoceptor activity, α1; details: summary statement
[12] = test system: extra-cellular calcium controlled α1s -adrenoceptors; experiment: Adrenoceptor activity, α1s; details: summary statement
[13] = Blood-brain barrier penetration; details: summary statement
[14] = test system: drug-metabolising enzymes in the liver; experiment: Induction of drug-metabolising enzymes in the liver; details: summary statement
[15] = test system: genetically fixed hypertension rats; details: p.o., prior art background; cited from earlier work

SMILES | ED (2-fold sleeping time) (Mouse [1]) | ED (2-fold sleeping time) (Mouse [2]) | ED (2-fold sleeping time) (Rat [3]) | ED50 (Mouse [4]) | ED50 (Mouse [6]) | ED50 (Mouse [7]) | ED50 (Mouse [8]) | LD50 (Toxicity LD50 in mouse; iv) | LD50 (Toxicity LD50 in mouse; po) | LD50 (Toxicity LD50 in rat; iv) | LD50 (Toxicity LD50 in rat; po) | selectivity ratio [10] | ED50 [11] | further results
Clc1cccc(Cl)c1N=C1NCCN1 [Clonidine, 2-((2,6-dichloro-phenyl)-imino)-imidazolidine, reference compound] | 0.3 mg/kg | 0.02 mg/kg | 0.05 mg/kg | 0.12 mg/kg | 0.028 mg/kg | 0.07 mg/kg | 5 mg/kg |  |  |  |  |  |  | ED50 (Rat [5]; Rat, p.o.): 0.3 mg/kg; Behavioural changes / CNS depression (conscious cats; 1 mg/kg i.p.): signs of CNS depression
Cn1cc2c(NC3=NCCN3)cccc2n1 [Sgd 101/75, 4-(2-imidazolin-2-yl-amino)-2-methyl-indazole] | > 100 mg/kg | > 100 mg/kg | > 100 mg/kg | 72 mg/kg | 28 mg/kg | 4.5 mg/kg | > 100 mg/kg | 58 mg/kg | 3900 mg/kg | 69 mg/kg | 3220 mg/kg | 767 | 4.2 mg/kg | ED50 (Rat [5]; Rattus norvegicus): 33 mg/kg; Behavioural changes / CNS depression (conscious cats; 4 and 10 mg/kg i.p.): no apparent behavioural changes; Effect on adrenaline vasopressor effect (adrenaline reversal) [9]: conversion of the vasopressor effect of adrenaline into a depressor response; anti-hypertensive activity relative to the prior art compound ([11]; relative to Sgd 230/75, taking into account LD50 values (rat, p.o.)): about 190%; Activity on α2 -adrenoceptors (α2 -adrenoceptors): complete antagonist; Activity on α1 -adrenoceptors (α1 -adrenoceptors): partial agonist; Activity on α1s -adrenoceptors [12]: complete and highly specific agonist; Penetration of the blood-brain barrier [13]: does not readily penetrate the blood-brain barrier; Induction of drug-metabolising enzymes in the liver [14]: does not induce drug-metabolising enzymes in the liver
Cn1ncc2c(NC3=NCCN3)cccc21 [Sgd 230/75, 4-(2-imidazolin-2-yl-amino)-1-methyl-indazole, reference compound] |  |  |  |  |  |  |  | 22 mg/kg | 600 mg/kg | 90 mg/kg | 1200 mg/kg | 400 | 3 mg/kg | therapeutic index LD50 /ED50 [15]: 800
